The source of these data is publication PMC9661477, “New Dual P-Glycoprotein (P-gp) and Human Carbonic Anhydrase XII (hCA XII) Inhibitors as Multidrug Resistance (MDR) Reversers in Cancer Cells” (Journal of Medicinal Chemistry, 2022).

Assay [1] concerns hCA XII KO A549/DOX cells. The experiment in a line: kinetic parameters of doxorubicin efflux in hCA XII KO A549/DOX cells. It is filed as cell-based, human. To be noted: doxorubicin alone. As for the experimental part:
(§1) Cells were incubated for 3 h with 5 μM doxorubicin, alone or with the selected compounds, washed with PBS, trypsinized, centrifuged at 13 000g for 5 min, and resuspended in 0.5 mL of 1/1 solution ethanol/0.3 N HCl. […] To calculate the kinetic parameters, cells were incubated for 20 min with increasing (0–100 μM) concentrations of doxorubicin, alone or with the indicated compounds, then analyzed for the intracellular concentration of doxorubicin. […] The difference in the doxorubicin concentration between the two series, expressed as nmol doxorubicin extruded/min/mg cell proteins, was plotted versus the initial drug concentration.[69] Values were fitted to the Michaelis–Menten equation to calculate Vmax and Km, using the Enzfitter software (Biosoft Corporation, Cambridge, United Kingdom).

Assay [2] relates to hCA XII KO A549/DOX cells. Briefly: doxorubicin cytotoxicity enhancement assay in hCA XII KO A549/DOX cells. The class given is cell-based. To be noted: Homo sapiens.
A further assay concerns P-gp KO HT29/DOX cells. The experiment in a line: cells. The following applies: Homo sapiens, HT-29, read-out: IC50 of doxorubicin.
Another assay deals with P-gp KO A549/DOX cells. The experiment in a line: cells. To be noted: Homo sapiens, A549, read-out: IC50 of doxorubicin.
Assay [3] has as its system HT29/DOX cells. The experiment in a line: cells. To be noted: Homo sapiens, HT-29, 72 h, read-out: IC50 of doxorubicin.
The subject of the next assay is A549 cells. Briefly: kinetic parameters of doxorubicin efflux in A549 cells. The class given is cell-based, human. To be noted: doxorubicin alone. As for the experimental part:
as §1

Assay [4] deals with HT29 cells. The experiment in a line: doxorubicin cytotoxicity in HT29 cells. To be noted: Homo sapiens, HT-29, 72 h, MTT. The class given is cell-based.
Protocol: Human chemosensitive colon cancer HT29 cells, lung cancer A549 cells, not-transformed human colon epithelial EpiCoC cells, and lung epithelial BEAS-2B cells were purchased from ATCC (Manassas, VA). […] Cells were maintained in media supplemented with 10% v/v fetal bovine serum, 1% v/v penicillin–streptomycin, and 1% v/v L-glutamine. […] Knockout efficacy was evaluated by immunoblotting, as reported below.
In assay [5] the test system is A549/DOX cells. The experiment in a line: kinetic parameters of doxorubicin efflux in A549/DOX cells. The class given is cell-based, human. To be noted: doxorubicin alone. As for the experimental part: as §1
Assay [6] deals with hCA XII KO HT29/DOX cells. Briefly: kinetic parameters of doxorubicin efflux in hCA XII KO HT29/DOX cells. It is filed as cell-based, human. The following applies: doxorubicin alone. As for the experimental part:
as §1

Assay [7] relates to HT29 cells. Briefly: kinetic parameters of doxorubicin efflux in HT29 cells. It is filed as cell-based, human. The following applies: doxorubicin alone. As for the experimental part: as §1
In assay [8] the test system is A549/DOX cells. Briefly: cells. To be noted: Homo sapiens, A549, 72 h, read-out: IC50 of doxorubicin.
Assay [9] concerns HT29/DOX cells. Briefly: kinetic parameters of doxorubicin efflux in HT29/DOX cells. The class given is cell-based, human. The following applies: doxorubicin alone. As for the experimental part:
as §1

The subject of assay [10] is hCA XII KO HT29/DOX cells. Briefly: doxorubicin cytotoxicity enhancement assay in hCA XII KO HT29/DOX cells. The class given is cell-based. To be noted: Homo sapiens, HT-29.

`COc1cccc2c1C(=O)c1c(O)c3c(c(O)c1C2=O)C[C@@](O)(C(=O)CO)C[C@@H]3O[C@H]1C[C@H](N)[C@H](O)[C@H](C)O1` [DOX, doxorubicin]: the Km – broadly, the substrate concentration at which the rate is half of its maximum – came out at 0.55 ± 0.028 µM in [1]; 0.47 ± 0.017 µM in the assay with A549 cells; 0.45 ± 0.019 µM in the assay on A549/DOX cells [5]; 0.58 ± 0.03 µM in [6]; 0.55 ± 0.028 µM in the assay on HT29 cells [7]; 0.54 ± 0.01 µM in the assay on HT29/DOX cells [9]. For the same compound, the “Vmax of doxorubicin efflux” value in [1] was 4.08 ± 0.32 µmol/min; in the assay on A549 cells, 2.35 ± 0.08 µmol/min; in the assay with A549/DOX cells [5], 7.51 ± 0.31 µmol/min; in [6], 5.47 ± 0.12 µmol/min; in the assay with HT29 cells [7], 3.21 ± 0.04 µmol/min; in the assay with HT29/DOX cells [9] it was 8.10 ± 0.15 µmol/min. Also, the IC50 (commonly the concentration that gives 50% inhibition) in assay [2] turned out to be 5.44 ± 1.5 µM; with P-gp KO HT29/DOX cells it was 0.46 ± 0.013 µM; with P-gp KO A549/DOX cells it was 0.9 ± 0.013 µM; in the assay with HT29/DOX cells [3] it was 12 ± 0.85 µM; in the assay on HT29 cells [4], 1.38 ± 0.03 µM; in the assay with A549/DOX cells [8], 15.5 ± 0.93 µM. Besides, in assay [10], the IC50 turned out to be 1.3 ± 0.06 µM.
